The target of this assay is T1, mGlu3 receptor (Homo sapiens, UniProt Q14832).
T1 construct: gene GRM3; recombinant receptor stably expressed in HEK293 cells
As to the kind of experiment: FLIPR Ca2+ mobilization, antagonist mode at glutamate EC80. It is filed as cell-based. The text has this: FLIPR Ca2+ mobilization, antagonist mode [NT]
On the technique in general: A change in cytosolic calcium serves as a functional read-out for many receptors and channels.

T1 sequence (Q14832 23-879): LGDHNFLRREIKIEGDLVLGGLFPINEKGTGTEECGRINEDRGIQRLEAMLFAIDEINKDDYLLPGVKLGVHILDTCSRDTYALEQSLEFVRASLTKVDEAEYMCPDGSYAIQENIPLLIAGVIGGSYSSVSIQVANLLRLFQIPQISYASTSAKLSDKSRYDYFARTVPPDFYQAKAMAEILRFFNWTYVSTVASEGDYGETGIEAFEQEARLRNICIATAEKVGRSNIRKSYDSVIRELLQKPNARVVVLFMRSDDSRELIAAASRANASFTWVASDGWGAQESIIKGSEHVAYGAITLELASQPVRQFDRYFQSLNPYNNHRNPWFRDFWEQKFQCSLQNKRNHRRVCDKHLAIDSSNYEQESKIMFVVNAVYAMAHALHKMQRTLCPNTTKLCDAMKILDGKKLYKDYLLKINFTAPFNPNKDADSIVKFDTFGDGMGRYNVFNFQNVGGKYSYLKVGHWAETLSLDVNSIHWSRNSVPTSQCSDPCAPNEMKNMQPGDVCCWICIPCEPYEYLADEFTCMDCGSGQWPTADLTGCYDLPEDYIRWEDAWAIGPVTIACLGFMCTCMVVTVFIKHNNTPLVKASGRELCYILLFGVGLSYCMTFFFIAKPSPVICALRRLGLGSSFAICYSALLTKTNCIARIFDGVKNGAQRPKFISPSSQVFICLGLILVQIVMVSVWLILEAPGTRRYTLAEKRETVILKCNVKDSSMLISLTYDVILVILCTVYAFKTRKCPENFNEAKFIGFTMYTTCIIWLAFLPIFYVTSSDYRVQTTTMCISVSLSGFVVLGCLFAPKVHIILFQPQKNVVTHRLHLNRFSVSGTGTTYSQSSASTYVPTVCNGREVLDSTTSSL

Consider ADX92639, for which half-maximal inhibition (IC50) was put at 17.4 µM.

The values are drawn from PMC4619332, “Targeting type-2 metabotropic glutamate receptors to protect vulnerable hippocampal neurons against ischemic damage” (Molecular Brain, 2015).
